Experimental data reported in PMC11018852, “Scutellarin activates IDH1 to exert antitumor effects in hepatocellular carcinoma progression” (Cell Death & Disease, 2024).

Molecular target: T1, IDH1 (Homo sapiens, UniProt O75874)
T1 construct: residues 1–414
Assay: biolayer interferometry on recombinant IDH1 (repeat Kd […]); supported by DSF, CETSA, LC-MS/MS adduct at Cys297, enzyme activation EC50 […]
Format: binding

T1 sequence (O75874 whole entry, the tested form may be a part): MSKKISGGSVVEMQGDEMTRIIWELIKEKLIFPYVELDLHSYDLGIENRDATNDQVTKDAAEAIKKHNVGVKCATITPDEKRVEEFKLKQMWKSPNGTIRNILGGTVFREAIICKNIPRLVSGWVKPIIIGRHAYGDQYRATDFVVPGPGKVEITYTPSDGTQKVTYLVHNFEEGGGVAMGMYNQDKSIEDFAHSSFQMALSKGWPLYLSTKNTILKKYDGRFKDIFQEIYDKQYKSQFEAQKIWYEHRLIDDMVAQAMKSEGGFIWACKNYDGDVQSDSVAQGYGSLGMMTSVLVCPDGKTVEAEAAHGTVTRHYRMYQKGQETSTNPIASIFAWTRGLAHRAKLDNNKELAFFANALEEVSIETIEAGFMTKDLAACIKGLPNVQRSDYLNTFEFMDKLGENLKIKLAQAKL

## O=C(O)[C@H]1O[C@@H](Oc2cc3oc(-c4ccc(O)cc4)cc(=O)c3c(O)c2O)[C@H](O)[C@@H](O)[C@@H]1O [Scu, scutellarin]
  Kd: 11.5 µM
